This test relates to L1210 leukemia ip in BDF1 mice, survival T/C. Briefly: NCI In Vivo Anticancer Drug Screen. Data for tumor model L1210 Leukemia (intraperitoneal) in B6D2F1 (BDF1) mice. To be noted: endpoint: mean survival time, higher = longer survival. In outline: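 Value reflects the ratio of survival in compound-treated mice to survival in vehicle-treated controls, with both groups carrying the same transplanted tumor.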

The mark [1] stands for this setting: dose: 100.0 mg/kg/injection, schedule: Q01DX001 (ip), vehicle: carboxymethylcellulose (CMC).
[2] abbreviates: dose: 200.0 mg/kg/injection, schedule: Q01DX001 (ip), vehicle: carboxymethylcellulose (CMC).
Setting [3] is: dose: 400.0 mg/kg/injection, schedule: Q01DX001 (ip), vehicle: carboxymethylcellulose (CMC).
The mark [4] stands for this setting: dose: 100.0 mg/kg/injection, schedule: Q04DX003 (ip), vehicle: Klucel (hydroxypropylcellulose) (HPC).
Setting [5] is: dose: 100.0 mg/kg/injection, schedule: Q01DX001 (ip), vehicle: saline.
Setting [6] is: dose: 200.0 mg/kg/injection, schedule: Q01DX001 (ip), vehicle: saline.
Setting [7] is: dose: 50.0 mg/kg/injection, schedule: Q01DX009 (ip), vehicle: saline.

Where “and” joins values, the source holds several entries; their conditions need not be identical. Identical values can stand only once. Toxic doses and inconclusive results are not listed.

On to `CCN(CC)CCn1cnc2cc([N+](=O)[O-])ccc21`, for which the T/C runs as follows: (dose: 20.0 mg/kg/injection, schedule: Q01DX001 (ip), vehicle: Klucel (hydroxypropylcellulose) (HPC)) 101 % of control; (dose: 40.0 mg/kg/injection, schedule: Q01DX001 (ip), vehicle: Klucel (hydroxypropylcellulose) (HPC)) 98 % of control.

Turning to `O=C(Nc1c(Br)cc2c(c1Br)Cc1cc(Br)ccc1-2)C(Cl)Cl`, the T/C was 98 % of control under setting [1], 91 % of control under setting [2] and 98 % of control under setting [3].

As for `Cc1c(N)ccc2ccccc12`, the T/C (dose: 25.0 mg/kg/injection, schedule: Q04DX003 (ip), vehicle: Klucel (hydroxypropylcellulose) (HPC)) was 94 % of control; the T/C (dose: 50.0 mg/kg/injection, schedule: Q04DX003 (ip), vehicle: Klucel (hydroxypropylcellulose) (HPC)) is 91 % of control; the T/C (dose: 100.0 mg/kg/injection, schedule: Q01DX001 (ip), vehicle: other) was 103 % of control; the T/C under setting [4] is 91 % of control; the T/C (dose: 200.0 mg/kg/injection, schedule: Q01DX001 (ip), vehicle: other) is 99 % of control; the T/C (dose: 400.0 mg/kg/injection, schedule: Q01DX001 (ip), vehicle: other) was 97 % of control.

Turning to `C#CCOCC(O)C[As](=O)(O)c1cccc(Cl)c1` (stereo not drawn), the T/C by setting is: (dose: 1.56 mg/kg/injection, schedule: Q04DX003 (ip), vehicle: saline with Tween-80) 92 % of control; (dose: 3.13 mg/kg/injection, schedule: Q04DX003 (ip), vehicle: saline with Tween-80) 104 % of control; (dose: 6.25 mg/kg/injection, schedule: Q04DX003 (ip), vehicle: saline with Tween-80) 104 % of control.

On to `CN(C)c1nc(N)c(C#N)c(C#N)c1C#N`, for which the T/C (dose: 50.0 mg/kg/injection, schedule: Q01DX001 (ip), vehicle: saline) is 96 % of control; the T/C under setting [5] was 96 % of control; the T/C under setting [6] was 100 % of control.

As for `CC(c1ccccc1)c1ccc(O)cc1` (stereo not drawn), the T/C runs as follows: (dose: 100.0 mg/kg/injection, schedule: Q01DX009 (ip), vehicle: saline sonified) 97 % of control; (dose: 200.0 mg/kg/injection, schedule: Q01DX009 (ip), vehicle: saline sonified) 95 % of control; (dose: 400.0 mg/kg/injection, schedule: Q01DX009 (ip), vehicle: saline sonified) 97 % of control.

In the case of `O=C(Nc1cc(C(F)(F)F)ccc1Cl)c1ccc(Cl)cc1Cl`, the T/C runs as follows: (dose: 100.0 mg/kg/injection, schedule: Q01DX009 (sc), vehicle: olive oil, sesame oil, peanut oil) 104 % of control; (dose: 100.0 mg/kg/injection, schedule: Q04DX003 (sc), vehicle: olive oil, sesame oil, peanut oil) 106 % of control; (dose: 200.0 mg/kg/injection, schedule: Q01DX009 (sc), vehicle: olive oil, sesame oil, peanut oil) 113 % of control; (dose: 200.0 mg/kg/injection, schedule: Q04DX003 (sc), vehicle: olive oil, sesame oil, peanut oil) 101 % of control; (dose: 400.0 mg/kg/injection, schedule: Q01DX009 (sc), vehicle: olive oil, sesame oil, peanut oil) 107 % of control; (dose: 400.0 mg/kg/injection, schedule: Q04DX003 (sc), vehicle: olive oil, sesame oil, peanut oil) 101 % of control.

Take `NC(=O)c1ccc[n+](CC(=O)NCc2ccccc2)c1`: the T/C by setting is: (dose: 100.0 mg/kg/injection, schedule: Q04DX003 (ip), vehicle: saline) 96 % of control; (dose: 200.0 mg/kg/injection, schedule: Q04DX003 (ip), vehicle: saline) 93 % of control.

As for `CN=C(N)c1ccc(NC(=O)/C=C\c2ccc(C(=O)Nc3ccc(C(N)=NC)cc3)cc2)cc1`, the T/C reads like this: (dose: 1.88 mg/kg/injection, schedule: Q01DX Z (ip), vehicle: saline) 112 % of control; (dose: 3.75 mg/kg/injection, schedule: Q01DX Z (ip), vehicle: saline) 119 % of control; (dose: 7.5 mg/kg/injection, schedule: Q01DX Z (ip), vehicle: saline) 122 % of control; (dose: 60.0 mg/kg/injection, schedule: Q01DX Z (ip), vehicle: saline) 233 % of control; (dose: 120.0 mg/kg/injection, schedule: Q01DX Z (ip), vehicle: saline) 206 % of control; (dose: 480.0 mg/kg/injection, schedule: Q01DX Z (ip), vehicle: saline) 96 % of control.

As to `CC1CCC(=O)OCCCC(=O)C1` (stereo not drawn), the T/C was 93 % of control under setting [5] and 95 % of control (dose: 400.0 mg/kg/injection, schedule: Q01DX001 (ip), vehicle: saline).

With `N=C(N)Sc1cc(O)ccc1O`, the T/C was 94 % of control under setting [7]; 93 % of control (dose: 100.0 mg/kg/injection, schedule: Q01DX009 (ip), vehicle: saline); 102 % of control (dose: 100.0 mg/kg/injection, schedule: Q04DX003 (ip), vehicle: alcohol); 96 % of control (dose: 200.0 mg/kg/injection, schedule: Q01DX009 (ip), vehicle: saline); 104 % of control (dose: 200.0 mg/kg/injection, schedule: Q04DX003 (ip), vehicle: alcohol).

On to `OCc1cc2ccccc2cc1O`, for which the T/C runs as follows: (dose: 100.0 mg/kg/injection, schedule: Q01DX009 (ip), vehicle: Klucel (hydroxypropylcellulose) (HPC)) 97 % of control; under setting [4], 97 % of control; (dose: 200.0 mg/kg/injection, schedule: Q01DX009 (ip), vehicle: Klucel (hydroxypropylcellulose) (HPC)) 106 % of control; (dose: 200.0 mg/kg/injection, schedule: Q04DX003 (ip), vehicle: Klucel (hydroxypropylcellulose) (HPC)) 94 % of control; (dose: 400.0 mg/kg/injection, schedule: Q01DX009 (ip), vehicle: Klucel (hydroxypropylcellulose) (HPC)) 108 % of control; (dose: 400.0 mg/kg/injection, schedule: Q04DX003 (ip), vehicle: Klucel (hydroxypropylcellulose) (HPC)) 89 % of control.

`COc1ccc(O)c(C(=O)c2cccc(OC)c2C#N)c1`: the T/C is 104 % of control (dose: 25.0 mg/kg/injection, schedule: Q04DX003 (ip), vehicle: carboxymethylcellulose (CMC)); 103 % of control (dose: 50.0 mg/kg/injection, schedule: Q01DX001 (ip), vehicle: carboxymethylcellulose (CMC)); 116 % of control (dose: 50.0 mg/kg/injection, schedule: Q04DX003 (ip), vehicle: carboxymethylcellulose (CMC)); 97 % of control under setting [1]; 99 % of control and 100 % of control (dose: 100.0 mg/kg/injection, schedule: Q01DX009 (ip), vehicle: carboxymethylcellulose (CMC)); 100 % of control and 91 % of control (dose: 100.0 mg/kg/injection, schedule: Q04DX002 (ip), vehicle: carboxymethylcellulose (CMC)). Further, the T/C was 107 % of control and 86 % of control (dose: 100.0 mg/kg/injection, schedule: Q04DX003 (ip), vehicle: carboxymethylcellulose (CMC)); 99 % of control under setting [2]; 97 % of control and 87 % of control (dose: 200.0 mg/kg/injection, schedule: Q01DX009 (ip), vehicle: carboxymethylcellulose (CMC)); 104 % of control and 108 % of control (dose: 200.0 mg/kg/injection, schedule: Q04DX002 (ip), vehicle: carboxymethylcellulose (CMC)); 99 % of control under setting [3]; 110 % of control and 86 % of control (dose: 400.0 mg/kg/injection, schedule: Q01DX009 (ip), vehicle: carboxymethylcellulose (CMC)). Where the note is “dose: 400.0 mg/kg/injection, schedule: Q04DX002 (ip), vehicle: carboxymethylcellulose (CMC)”, the T/C is 97 % of control and 90 % of control.

On to `CNNC(=O)Cc1ccc(OC)cc1`, for which the T/C reads like this: under setting [7], 100 % of control; under setting [5], 100 % of control; under setting [6], 113 % of control.

For the origin of these results see PubChem BioAssay AID248 (DTP/NCI, 2004).
